Laboratory results reported in patent publication US20230219886A1, “NOVEL SELENO-NSAID ANALOGS AND USES THEREOF” (THE PENN STATE RESEARCH FOUNDATION, priority 2020, published 2023).
Like-named read-outs stand apart in the source and are kept apart here.

Legend:
[1] = test system: LC: HOP-62; experiment: NCI-60 dose-response, HOP-62; assay type: cell-based, human; details: HOP-62, 48 h
Description: (§1) NCI-60 Analysis. 1a and 6a were submitted to National Cancer Institute's (NCI) Developmental Therapeutics Program (DTP) where the cytotoxicity profile was investigated across their 60 human cancer cell line panel according to the protocol available on multiple sources (71-73, 83). The COMPARE algorithm (73), was utilized to evaluate the activity profile of 6a in comparison to those of known cytotoxins established in marketed drugs and standard agent data sets in order to correlate plausible modes of action.
(§2) NCI-60 analysis. Compounds 1a, 5a and 6a were submitted to the National Cancer Institute's (NCI) Developmental Therapeutics Program (DTP). NCI-60 program consists in a panel of 60 human cancer cell lines from a variety of cancers, including refractory tumors such as lung, ovarian, CRC, breast, brain and renal cancers, and melanomas together with more treatable cancers such as leukemias (71). 1a [NSC: 803071], 5a [NSC: 820332] and 6a [NSC: 811013] were initially screened at one dose (10 μM) at 48 h. Then, NCI selected only compound 6a to perform dose-response characterization (72).

[2] = test system: DU-145 (prostate carcinoma); experiment: MTT cell viability assay, DU-145; details: for cell viability: 48 h
Description: (§3) Cell Culture Conditions. The cell lines were obtained from the American Type Culture Collection (ATCC). PANC-1 and Caco-2 cell lines were maintained in DMEM medium (Gibco); HT-29, HCT-116 and RKO cells were maintained in McCoy's 5A medium (Gibco); and DU-145 and H1299 cells were maintained in RPMI 1640 medium (Gibco), supplemented with 10% fetal bovine serum (FBS; Gibco) and 1% antibiotics (10.00 units/mL penicillin and 10.00 mg/mL streptomycin; Gibco). Cells were preserved in tissue culture flasks at 37° C. and 5% CO2. Culture medium was replaced every three days.
(§4) Cell Viability Assay. The effect of each compound on cell viability was tested using the MTT assay (81). Briefly, 9000 cells/well were grown in 96-well plates for 12 h. Then these cells were incubated with either DMSO (control) or nine different concentration between 0.01-50 μM of the test compounds for 24, 48, and 72 h. Three hours before the termination point, 20 μL of MTT were added to measure cellular viability. The resultant formazan crystals were dissolved in 50 μL of DMSO, and absorbance was measured at 570 nm and 630 nm wavelengths. IC50, GI50, TGI and LC50 values were calculated using OriginPro 8.5.1.
(§5) Evaluation of the antiproliferative activities of the novel molecules. […] These four cell lines were treated with each compound at three concentrations (5, 25 and 50 μM) for 48 h.

[3] = test system: HT-29 (CRC); experiment: MTT cell viability assay, HT-29; details: for cell viability: 48 h; for CC50: read-out: LC50
Description: as §3, §4, §5

[4] = test system: CNS: SF-295; experiment: NCI-60 dose-response, SF-295; assay type: cell-based, human; details: SF-295, 48 h
Description: as §1, §2

[5] = test system: RKO CRC cells; experiment: cells
Description: as §3, §4

[6] = test system: CACO-2 CRC cells; experiment: cells
Description: as §3, §4

[7] = test system: BxPC3 cells; experiment: MTT assay, pancreatic ductal adenocarcinoma cells BxPC3; assay type: cell-based
Description: (§6) The cytotoxic response of 6a on pancreatic ductal adenocarcinoma cell lines (Panc-1, MIA PaCa-2 and BxPC3) was evaluated using MTT assay. […] To determine whether the in vitro efficacy of 6a translates to in vivo models, we performed a pilot tumor inhibition study in xenograft mouse model using BxPC3 cells. Athymic nude mice were subcutaneously injected with BxPC3 cells. After two weeks, mice were injected intraperitoneally with vehicle DMSO (control) or 6a (three times a week at a dose of 4 mg/Kg in 100 μL of DMSO). Tumor size and animal weights were measured twice a week.

[8] = test system: NCI-60 human cancer cell line panel; experiment: NCI-60 dose-response, whole panel; assay type: cell-based
Description: as §1, §2

[9] = test system: CNS: SF-539; experiment: NCI-60 dose-response, SF-539; assay type: cell-based, human; details: SF-539, 48 h
Description: as §1, §2

[10] = Systemic toxicity in xenograft mice; assay type: in vivo
Description: as §6

[11] = test system: RE: A498; experiment: NCI-60 dose-response, A498; assay type: cell-based, human; details: A498, 48 h
Description: as §1, §2

[12] = test system: LC: EKVX; experiment: NCI-60 dose-response, EKVX; assay type: cell-based, human; details: 48 h
Description: as §1, §2

[13] = test system: OV: OVCAR-5; experiment: NCI-60 dose-response, OVCAR-5; assay type: cell-based, human; details: OVCAR-5, most resistant cell line
Description: as §1, §2

[14] = test system: NCI-H226 (non-small cell lung cancer); experiment: NCI-60 one-dose screen, NCI-H226; assay type: cell-based, human; details: NCI-H226, 10 μM, 48 h
Description: as §1, §2

[15] = test system: HT-29 (CRC cells); experiment: NCI-60 one-dose screen, HT-29; assay type: cell-based, human; details: HT-29, 10 μM, 48 h
Description: as §1, §2

[16] = read-out: LC50 (the source's name)
[17] = 4 mg/Kg i.p. three times a week
[18] = Homo sapiens, DU-145, 48 h, read-out: cell viability
[19] = Homo sapiens, HT-29, 48 h, read-out: cell viability

## C[Se]C(=O)CC1=C(C)/C(=C/c2ccc([S+](C)[O-])cc2)c2ccc(F)cc21 (stereo not drawn) [Compound 6a, Se-methyl (Z)-2-(5-fluoro-2-methyl-1-(4-(methylsulfinyl)benzylidene)-1H-indenyl)ethaneselenoate]
[1]
  GI50: < 0.01 µM
  LC50: 0.941 µM
  TGI: 0.155 µM
[2]; DU145, 5 μM
  cell viability: 60.1 ± 2.2%
[2]; DU145, 25 μM
  cell viability: 44.9 ± 2.4%
[2]; DU145, 50 μM
  cell viability: 52.5 ± 2.9%
[3]; HT-29
  increase on cytotoxic potency compared with parent NSAID scaffolds: three-fold
[3]; HT-29, 5 μM
  cell viability: 22.9 ± 2.9%
[3]; HT-29, 25 μM
  cell viability: 11.9 ± 6.6%
[3]; HT-29, 50 μM
  cell viability: 11.1 ± 6.2%
[3]; HT-29, 24 h
  GI50: 1.2 ± 1.1 µM
  IC50: 2.4 ± 0.3 µM
  TGI: 9.9 ± 3.9 µM
  CC50: > 50 µM
[3]; HT-29, 48 h
  GI50: 1.4 ± 0.7 µM
  IC50: 2 ± 0.7 µM
  TGI: 3.3 ± 0.3 µM
  CC50: 10.1 ± 5.2 µM
[3]; HT-29, 72 h
  GI50: 0.5 ± 0.5 µM
  IC50: 1.4 ± 0.3 µM
  TGI: 2.4 ± 0.4 µM
  CC50: 6.3 ± 0.7 µM
[4]
  GI50: 0.0242 µM
  LC50: 0.386 µM
  TGI: 0.107 µM
[5]; RKO, 24 h
  IC50: > 50 µM
[5]; RKO, 48 h
  IC50: 17.2 ± 2.4 µM
[5]; RKO, 72 h
  IC50: 17.3 ± 0.8 µM
[6]; CACO-2, 24 h
  IC50: 3 ± 0.5 µM
[6]; CACO-2, 48 h
  IC50: 1.3 ± 0.6 µM
[6]; CACO-2, 72 h
  IC50: 0.7 ± 0.2 µM
[7]
  IC50: 1 µM
[8]; LE:SR, CCRF-CEM, HCT-116, HL60, NCI-H522, MOLT-4
  cytotoxic activity towards the 6 most sensitive cells of the panel: negligible
[8]; TK10, SK-MEL-28, SNB-19, SK-OV-3, NCI-H322M, OVCAR-5
  activity towards the 6 most resistant cells: outstanding activity
[8]; in all cell lines, except for seven
  TGI values: below 12 μM
[8]; in four NSCLS and two CNS cell lines
  GI50: < 0.01 µM
[9]
  GI50: 0.105 µM
  TGI: 0.275 µM
[9]; [16]
  CC50: 0.718 µM
[10]; [17]
  alanine aminotransferase (SGPT): 19 U/L
  bilirubin toxicity: 0.40 mg/dL
  blood urea nitrogen: 23 mg/dL
  body weight loss as compared to the control mice: did not show any significant weight loss
[10]; at the dose used (4 mg/Kg)
  systemic toxicity: no evidence of systemic toxicity
[11]
  GI50: 0.0388 µM
  TGI: 0.184 µM
[11]; [16]
  CC50: 0.658 µM
[12]
  GI50: < 0.01 µM
  TGI: 0.0108 µM
[12]; [16]
  CC50: 0.861 µM
[13]
  GI50: 0.047 µM
  TGI: 0.41 µM
[13]; [16]
  CC50: 3.9 µM

## C[Se]C(=O)c1ccccc1OC(C)=O [Compound 1a, 2-((methylselanyl)carbonyl)phenyl acetate]
[14]
  Growth percent (GP): < 12%
[2]; [18]
  viability at 5 µM: 43.2 ± 1.8%
  viability at 25 µM: 35.9 ± 7%
  viability at 50 µM: 36.5 ± 6.7%
[3]
  increase on cytotoxic potency compared with parent NSAID scaffolds: three-fold
[3]; HT-29, 24 h
  TGI: 0.5 ± 0.3 µM
[3]; HT-29, 48 h
  TGI: 0.2 ± 0.1 µM
[3]; HT-29, 72 h
  TGI: 0.7 ± 0.3 µM
[3]; Homo sapiens, HT-29, 24 h
  GI50: 0.1 ± 0.1 µM
  IC50: 1.9 ± 0.6 µM
  CC50: 1.7 ± 1.6 µM
[3]; Homo sapiens, HT-29, 48 h
  GI50: 0.1 ± 0.1 µM
  IC50: 1.2 ± 0.1 µM
  CC50: 0.7 ± 0.1 µM
[3]; [19]
  viability at 5 µM: 20.8 ± 5.6%
  viability at 25 µM: 18.5 ± 4.1%
  viability at 50 µM: 17.7 ± 12.6%
[3]; Homo sapiens, HT-29, 72 h
  GI50: 0.2 ± 0.1 µM
  IC50: 1.2 ± 0.4 µM
  CC50: 2.5 ± 1.4 µM
[3]; Homo sapiens, HT-29, read-out: inhibition in cell viability
  cytotoxicity at 5 µM: 75 to 80%
[5]; Homo sapiens, 24 h
  IC50: > 50 µM
[5]; Homo sapiens, 48 h
  IC50: > 50 µM
[5]; Homo sapiens, 72 h
  IC50: > 50 µM
[6]; Homo sapiens, Caco-2, 24 h
  IC50: 2.6 ± 0.2 µM
[6]; Homo sapiens, Caco-2, 48 h
  IC50: 0.9 ± 0.1 µM
[6]; Homo sapiens, Caco-2, 72 h
  IC50: 0.8 ± 0.1 µM
[15]
  Growth percent (GP): < 12%
